Data taken from publication PMC4184702 (Pharmacology Research & Perspectives, 2014).

Key:
[1] = test system: 51 other CNS neurotransmitter receptors and transporters; assay: Broad-range screening (PDSP), summary; type: binding; settings: 10 μmol/L
Method: (§1) For experimental details, please refer to the Psychoactive Drug Screening Program (PDSP) web site http://pdsp.med.unc.edu/.
(§2) ^a The default concentration for primary binding experiments is 10 µM (n = 4). ^b Negative inhibition represents a stimulation of binding. ^c BZPR: Benzodiazepine Receptors (rat brain site). ^d DOR: Delta Opioid Receptor; KOR: Kappa Opioid Receptor; MOR: Mu Opioid Receptor. ^e DAT: Dopamine Transporter; NET: Norepinephrine Transporter; SERT: Serotonin Transporter. ^f NMDA: N-methyl-D-aspartate receptor.

α1D adrenergic receptor = target: T1, α1D adrenergic receptor (Homo sapiens, UniProt P25100); assay: PDSP primary binding, α1D; settings: n = 4, read-out: Inhibition (primary binding competition efficacy), α1D
T1 construct: purchased NIMH Psychoactive Drug Screening Program (PDSP)
T1 sequence (P25100 whole entry): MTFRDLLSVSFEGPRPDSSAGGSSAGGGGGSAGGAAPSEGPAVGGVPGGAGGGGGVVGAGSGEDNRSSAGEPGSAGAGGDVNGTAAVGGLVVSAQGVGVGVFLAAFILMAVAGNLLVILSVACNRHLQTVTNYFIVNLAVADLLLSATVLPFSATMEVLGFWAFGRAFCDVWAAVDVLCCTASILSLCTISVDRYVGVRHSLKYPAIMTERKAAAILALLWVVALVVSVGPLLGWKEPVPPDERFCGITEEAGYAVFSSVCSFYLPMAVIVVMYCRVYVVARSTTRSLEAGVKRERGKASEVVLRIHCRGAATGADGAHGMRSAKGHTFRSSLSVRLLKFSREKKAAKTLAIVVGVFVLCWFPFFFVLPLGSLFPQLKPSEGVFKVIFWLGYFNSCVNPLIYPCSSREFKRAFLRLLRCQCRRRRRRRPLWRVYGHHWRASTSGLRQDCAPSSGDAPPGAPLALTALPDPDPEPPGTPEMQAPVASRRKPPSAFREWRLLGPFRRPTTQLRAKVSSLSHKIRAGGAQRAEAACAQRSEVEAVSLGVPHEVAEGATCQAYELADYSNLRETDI
Method: as §1, §2

strain TA1535 = assay: Ames test, strain TA1535; type: cell-based
5-HT2A = target: T2, 5-HT2A (Homo sapiens, UniProt P28223); assay: PDSP primary binding, 5-HT2A; settings: n = 4, read-out: Inhibition (primary binding competition efficacy), 5-HT2A
T2 construct: purchased NIMH Psychoactive Drug Screening Program (PDSP)
T2 sequence (P28223 whole entry): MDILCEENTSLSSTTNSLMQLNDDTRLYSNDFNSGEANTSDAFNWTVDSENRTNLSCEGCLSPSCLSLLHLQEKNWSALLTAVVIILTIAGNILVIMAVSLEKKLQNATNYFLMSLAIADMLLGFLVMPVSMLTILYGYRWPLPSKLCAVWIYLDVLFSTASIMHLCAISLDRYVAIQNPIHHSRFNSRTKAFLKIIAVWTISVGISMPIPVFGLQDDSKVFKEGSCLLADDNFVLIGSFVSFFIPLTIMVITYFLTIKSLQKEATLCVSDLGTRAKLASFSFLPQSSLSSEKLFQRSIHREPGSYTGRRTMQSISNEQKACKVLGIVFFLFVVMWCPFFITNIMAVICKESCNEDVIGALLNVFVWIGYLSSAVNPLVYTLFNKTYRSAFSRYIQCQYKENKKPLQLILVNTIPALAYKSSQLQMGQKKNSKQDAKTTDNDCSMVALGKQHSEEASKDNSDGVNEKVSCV
Method: as §1, §2

CB1 = target: T3, CB1 (Homo sapiens, UniProt P21554); assay: PDSP primary binding, CB1; settings: n = 4, read-out: Inhibition (primary binding competition efficacy), CB1
T3 construct: purchased NIMH Psychoactive Drug Screening Program (PDSP)
T3 sequence (P21554 whole entry): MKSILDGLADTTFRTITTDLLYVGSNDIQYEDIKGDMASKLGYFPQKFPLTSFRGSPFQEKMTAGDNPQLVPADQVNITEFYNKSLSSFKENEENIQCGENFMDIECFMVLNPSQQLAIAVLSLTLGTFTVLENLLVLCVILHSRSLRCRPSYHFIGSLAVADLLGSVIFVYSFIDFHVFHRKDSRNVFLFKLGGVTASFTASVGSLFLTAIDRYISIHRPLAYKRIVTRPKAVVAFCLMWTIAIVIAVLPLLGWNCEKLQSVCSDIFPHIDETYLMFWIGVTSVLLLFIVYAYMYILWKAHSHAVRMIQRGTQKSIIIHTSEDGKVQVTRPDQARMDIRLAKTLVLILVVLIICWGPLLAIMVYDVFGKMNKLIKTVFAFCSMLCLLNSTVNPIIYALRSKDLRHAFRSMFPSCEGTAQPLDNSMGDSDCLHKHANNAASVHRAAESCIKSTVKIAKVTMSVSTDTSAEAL
Method: as §1, §2

M4 muscarinic receptor = target: T4, M4 muscarinic receptor (Homo sapiens, UniProt P08173); assay: PDSP primary binding, M4; settings: n = 4, read-out: Inhibition (primary binding competition efficacy), M4
T4 construct: purchased NIMH Psychoactive Drug Screening Program (PDSP)
T4 sequence (P08173 whole entry): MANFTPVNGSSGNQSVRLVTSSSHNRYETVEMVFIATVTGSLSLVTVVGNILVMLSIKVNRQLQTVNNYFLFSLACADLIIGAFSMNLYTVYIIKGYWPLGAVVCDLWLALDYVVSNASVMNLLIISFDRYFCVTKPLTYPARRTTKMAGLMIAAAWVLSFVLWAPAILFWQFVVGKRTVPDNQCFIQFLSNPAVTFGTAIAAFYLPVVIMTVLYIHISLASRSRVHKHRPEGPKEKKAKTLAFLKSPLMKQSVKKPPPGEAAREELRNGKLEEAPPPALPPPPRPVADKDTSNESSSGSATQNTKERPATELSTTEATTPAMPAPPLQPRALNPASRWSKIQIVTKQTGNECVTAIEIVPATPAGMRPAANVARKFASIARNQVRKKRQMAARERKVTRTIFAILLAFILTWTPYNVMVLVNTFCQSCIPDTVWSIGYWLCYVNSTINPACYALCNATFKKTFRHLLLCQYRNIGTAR
Method: as §1, §2

[2] = test system: BZPR: Benzodiazepine Receptors (rat brain site); assay: PDSP primary binding, BZPR; settings: 10 µM, n = 4
Method: as §1, §2

strain TA100 = assay: Ames test, strain TA100; type: cell-based
[3] = Bacterial cytotoxicity, strain TA100; type: cell-based; settings: Salmonella typhimurium, bacterial tester strain TA100 without S9, read-out: Cytotoxicity (% of Control Values)
Excerpt: Supplement prp20002-e00026-sd1.doc, table 4: Table 4.

CB2 = target: T5, CB2 (Homo sapiens, UniProt P34972); assay: PDSP primary binding, CB2; settings: n = 4, read-out: Inhibition (primary binding competition efficacy), CB2
T5 construct: purchased NIMH Psychoactive Drug Screening Program (PDSP)
T5 sequence (P34972 whole entry): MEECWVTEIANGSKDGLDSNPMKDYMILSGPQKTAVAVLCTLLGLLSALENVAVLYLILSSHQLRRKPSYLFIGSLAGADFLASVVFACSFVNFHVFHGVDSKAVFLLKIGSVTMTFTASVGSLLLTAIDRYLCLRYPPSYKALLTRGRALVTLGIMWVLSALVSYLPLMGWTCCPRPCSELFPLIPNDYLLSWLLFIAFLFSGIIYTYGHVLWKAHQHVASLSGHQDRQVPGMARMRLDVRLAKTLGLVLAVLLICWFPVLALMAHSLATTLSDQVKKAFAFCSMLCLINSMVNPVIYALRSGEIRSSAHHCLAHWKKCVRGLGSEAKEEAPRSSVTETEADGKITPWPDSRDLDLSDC
Method: as §1, §2

[4] = parameters: method as in Yuan et al. [2013]; settings: ref Yuan et al. [2013]; cited from earlier work
5-HT2C = target: T6, 5-HT2C (Homo sapiens, UniProt P28335); assay: PDSP primary binding, 5-HT2C; settings: n = 4, read-out: Inhibition (primary binding competition efficacy), 5-HT2C
T6 construct: purchased NIMH Psychoactive Drug Screening Program (PDSP)
T6 sequence (P28335 33-458): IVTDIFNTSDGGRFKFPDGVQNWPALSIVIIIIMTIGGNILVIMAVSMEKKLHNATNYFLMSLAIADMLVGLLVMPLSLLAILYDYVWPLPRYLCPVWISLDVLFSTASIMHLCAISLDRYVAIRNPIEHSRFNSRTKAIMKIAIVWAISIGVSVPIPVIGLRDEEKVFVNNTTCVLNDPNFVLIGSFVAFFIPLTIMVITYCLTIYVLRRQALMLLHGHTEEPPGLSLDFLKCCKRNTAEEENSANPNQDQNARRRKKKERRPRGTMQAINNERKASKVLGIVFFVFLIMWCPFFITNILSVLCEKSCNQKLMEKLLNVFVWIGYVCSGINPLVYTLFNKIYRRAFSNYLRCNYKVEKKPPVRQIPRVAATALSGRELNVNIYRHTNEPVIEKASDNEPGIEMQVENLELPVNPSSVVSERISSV
Method: as §1, §2

strain TA98 = assay: Ames test, strain TA98; type: cell-based
5-HT1D = target: T7, 5-HT1D (Homo sapiens, UniProt P28221); assay: PDSP primary binding, 5-HT1D; settings: n = 4, read-out: Inhibition (primary binding competition efficacy), 5-HT1D
T7 construct: purchased NIMH Psychoactive Drug Screening Program (PDSP)
T7 sequence (P28221 whole entry): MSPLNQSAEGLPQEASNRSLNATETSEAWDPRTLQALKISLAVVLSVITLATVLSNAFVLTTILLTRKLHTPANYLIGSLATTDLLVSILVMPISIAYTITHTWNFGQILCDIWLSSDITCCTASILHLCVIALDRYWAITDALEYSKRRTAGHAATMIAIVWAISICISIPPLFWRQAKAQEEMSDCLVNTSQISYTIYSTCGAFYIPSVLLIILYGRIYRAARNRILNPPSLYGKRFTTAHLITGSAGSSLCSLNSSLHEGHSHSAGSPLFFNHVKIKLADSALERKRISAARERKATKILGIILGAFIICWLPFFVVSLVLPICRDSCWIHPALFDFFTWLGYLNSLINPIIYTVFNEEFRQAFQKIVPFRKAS
Method: as §1, §2

MOR: Mu Opioid Receptor = target: T8, MOR: Mu Opioid Receptor (Homo sapiens, UniProt P35372); assay: PDSP primary binding, MOR; settings: n = 4, read-out: Inhibition (primary binding competition efficacy), MOR
T8 construct: purchased NIMH Psychoactive Drug Screening Program (PDSP)
T8 sequence (P35372 whole entry): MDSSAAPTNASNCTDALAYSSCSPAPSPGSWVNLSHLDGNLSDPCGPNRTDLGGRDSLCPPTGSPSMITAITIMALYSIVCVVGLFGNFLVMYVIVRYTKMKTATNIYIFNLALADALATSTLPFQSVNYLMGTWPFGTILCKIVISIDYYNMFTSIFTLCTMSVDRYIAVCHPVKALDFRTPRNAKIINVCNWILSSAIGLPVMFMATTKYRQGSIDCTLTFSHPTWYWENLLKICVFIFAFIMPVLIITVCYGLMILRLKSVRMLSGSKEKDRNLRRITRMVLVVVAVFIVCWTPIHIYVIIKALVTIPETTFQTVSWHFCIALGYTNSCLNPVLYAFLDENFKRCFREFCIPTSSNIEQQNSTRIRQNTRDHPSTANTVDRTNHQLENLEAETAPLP
Method: as §1, §2

[5] = target: T9, DOR: Delta Opioid Receptor (Homo sapiens, UniProt P41143); assay: PDSP primary binding, DOR; settings: n = 4, read-out: Inhibition (primary binding competition efficacy), DOR
T9 construct: purchased NIMH Psychoactive Drug Screening Program (PDSP)
T9 sequence (P41143 whole entry): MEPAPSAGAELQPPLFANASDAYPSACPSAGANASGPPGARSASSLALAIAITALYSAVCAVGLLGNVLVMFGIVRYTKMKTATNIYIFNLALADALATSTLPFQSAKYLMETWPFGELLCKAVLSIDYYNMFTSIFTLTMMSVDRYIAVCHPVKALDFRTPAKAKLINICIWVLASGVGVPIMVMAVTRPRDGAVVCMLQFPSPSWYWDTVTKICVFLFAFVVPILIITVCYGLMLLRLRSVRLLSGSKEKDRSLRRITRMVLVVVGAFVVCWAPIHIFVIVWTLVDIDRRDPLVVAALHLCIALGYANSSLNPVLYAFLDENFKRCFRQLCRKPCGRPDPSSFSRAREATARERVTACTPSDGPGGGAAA
Method: as §1, §2

Male C57 BL6/J mice = test system: Male C57 BL6/J mice
Method: Male C57 BL6/J (from Jackson Laboratories) mice were used for these studies. Upon receipt at 6 weeks of age, mice were single-housed in OptiMICE ventilated cages and acclimated to the colony room for 1 week prior to beginning of the dosing regimen at 7 weeks of age.
Mice were tested in NSF on day 29 of treatment. Eighteen hours prior to behavioral testing, all food was removed from the home cage. The NSF test was carried out during a 15-min period. The test chamber consists of a rectangular (14″ × 20″ × 6″) plastic box. The chamber floor is covered with bedding (∼0.5″). At the time of testing, animals were placed in the left front corner of the chamber and two food pellets (regular chow) were placed on a laminated white paper circle (13 cm in diameter) positioned in the center of the test chamber. The latency to eat is defined by the animal holding the food with one or both paws and taking a bite of the pellet and staying in the center eating for at least 5 sec. The mice were videotaped and tapes were scored by two trained observers blind to the treatments. […] Upon completion of NSF, about 50 60 min after the pretreatment, mice were decapitated and all animals from all treatment groups except from the imipramine group were processed for collection of trunk blood and whole-brain tissue. […]

α2B adrenergic receptor = target: T10, α2B adrenergic receptor (Homo sapiens, UniProt P18089); assay: PDSP primary binding, α2B; settings: n = 4, read-out: Inhibition (primary binding competition efficacy), α2B
T10 construct: purchased NIMH Psychoactive Drug Screening Program (PDSP)
T10 sequence (P18089 whole entry): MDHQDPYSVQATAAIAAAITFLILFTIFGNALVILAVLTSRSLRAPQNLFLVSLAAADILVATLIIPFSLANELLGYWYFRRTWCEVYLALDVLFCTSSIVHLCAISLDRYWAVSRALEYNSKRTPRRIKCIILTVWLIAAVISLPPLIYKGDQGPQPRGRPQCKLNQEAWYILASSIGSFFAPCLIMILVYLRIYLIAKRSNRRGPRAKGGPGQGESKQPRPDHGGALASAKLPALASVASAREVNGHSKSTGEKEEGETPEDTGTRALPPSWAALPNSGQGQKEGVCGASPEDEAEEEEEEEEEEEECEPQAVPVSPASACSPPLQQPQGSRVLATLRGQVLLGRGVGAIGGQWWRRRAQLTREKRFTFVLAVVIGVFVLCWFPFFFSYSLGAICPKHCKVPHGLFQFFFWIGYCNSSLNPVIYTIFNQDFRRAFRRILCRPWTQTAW
Method: as §1, §2

[6] = with or without S9, 5, 10, 50, or 100 μmol/L

Structure (SMILES): OCCc1cc(-c2cncc(OC[C@@H]3CCN3)c2)on1 [LF-3-88, 2-[5-[5-(2(S)-azetidinylmethoxyl)-3-pyridyl]-3-isoxazolyl]ethanol]
- inhibition across 51 other CNS neurotransmitter receptors and transporters [1]: ≤ 50%
- inhibition at 10 µM (α1D adrenergic receptor): -3.4%
- Ames test Result (strain TA1535; strain TA1535 + S9, 1.0E-04 M): Negative
- Ames test Result (strain TA1535; strain TA1535 + S9, 1.0E-05 M): Negative
- Ames test Result (strain TA1535; strain TA1535 + S9, 5.0E-05 M): Negative
- Ames test Result (strain TA1535; strain TA1535 + S9, 5.0E-06 M): Negative
- Ames test Result (strain TA1535; strain TA1535 – S9, 1.0E-04 M): Negative
- Ames test Result (strain TA1535; strain TA1535 – S9, 1.0E-05 M): Negative
- Ames test Result (strain TA1535; strain TA1535 – S9, 5.0E-05 M): Negative
- Ames test Result (strain TA1535; strain TA1535 – S9, 5.0E-06 M): Negative
- mutagenic potential (Ames), TA1535 (strain TA1535; [6]): negative
- inhibition at 10 µM (5-HT2A): 34.1%
- inhibition at 10 µM (CB1): 5.1%
- inhibition at 10 µM (M4 muscarinic receptor): -3.6%
- Inhibition (primary binding competition efficacy), BZPR [2]: 6.7%
- Ames test Result (strain TA100; strain TA100 + S9, 1.0E-04 M): Negative
- Ames test Result (strain TA100; strain TA100 + S9, 1.0E-05 M): Negative
- Ames test Result (strain TA100; strain TA100 + S9, 5.0E-05 M): Negative
- Ames test Result (strain TA100; strain TA100 + S9, 5.0E-06 M): Negative
- Ames test Result (strain TA100; strain TA100 – S9, 1.0E-04 M): Negative
- Ames test Result (strain TA100; strain TA100 – S9, 1.0E-05 M): Negative
- Ames test Result (strain TA100; strain TA100 – S9, 5.0E-05 M): Negative
- Ames test Result (strain TA100; strain TA100 – S9, 5.0E-06 M): Negative
- mutagenic potential (Ames), TA100 (strain TA100; [6]): negative
- viability at 0.0001 M ([3]; strain TA100 – S9, 1.0E-04 M): 139%
- viability at 10 µM ([3]; strain TA100 – S9, 1.0E-05 M): 103%
- viability at 1.25 µM ([3]; strain TA100 – S9, 1.25E-06 M): 102%
- viability at 25 µM ([3]; strain TA100 – S9, 2.5E-05 M): 115%
- viability at 2.5 µM ([3]; strain TA100 – S9, 2.5E-06 M): 99%
- viability at 50 µM ([3]; strain TA100 – S9, 5.0E-05 M): 125%
- viability at 5 µM ([3]; strain TA100 – S9, 5.0E-06 M): 103%
- viability at 625 nM ([3]; strain TA100 – S9, 6.25E-07 M): 101%
- inhibition at 10 µM (CB2): -7.3%
- absorption and blood-brain barrier crossing in vivo [4]: absorbed rapidly and crossed the blood–brain barrier
- inhibition at 10 µM (5-HT2C): 22.7%
- Ames test Result (strain TA98; strain TA98 + S9, 1.0E-04 M): Negative
- Ames test Result (strain TA98; strain TA98 + S9, 1.0E-05 M): Negative
- Ames test Result (strain TA98; strain TA98 + S9, 5.0E-05 M): Negative
- Ames test Result (strain TA98; strain TA98 + S9, 5.0E-06 M): Negative
- Ames test Result (strain TA98; strain TA98 – S9, 1.0E-04 M): Negative
- Ames test Result (strain TA98; strain TA98 – S9, 1.0E-05 M): Negative
- Ames test Result (strain TA98; strain TA98 – S9, 5.0E-05 M): Negative
- Ames test Result (strain TA98; strain TA98 – S9, 5.0E-06 M): Negative
- mutagenic potential (Ames), TA98 (strain TA98; [6]): negative
- inhibition at 10 µM (5-HT1D): -14.9%
- inhibition at 10 µM (MOR: Mu Opioid Receptor): 5.7%
- inhibition at 10 µM [5]: 5.9%
- treatment effect on body weight (Male C57 BL6/J mice; 4-week administration): did not find a significant treatment effect
- behavioral changes / tolerability in NSF paradigm (Male C57 BL6/J mice; 28 days oral administration, 5 and 10 mg/kg): No obvious behavioral changes
- inhibition at 10 µM (α2B adrenergic receptor): -17.7%
